Tested on: interleukin-8 (IL-8) secretion by Caco-2 cells
Assay: Anti-inflammatory effect on the Caco-2 line: IL-8 secretion after IL-1 beta activation, ELISA
Assay type: cell-based, human
Conditions: differentiated Caco-2 cells (14 days), 24 h preculture with test agent, then 1 ng/ml IL-1 beta for 12 hours
From the text: Caco-2 cells, a colon cancer cell line, are an established cell model of the human intestinal epithelium (Pinto et al., 1983, Biol. Cell, 47, 323-330). These cells secrete interleukin-8 (IL-8), which is one of the major interleukins in the pathogenesis of inflammatory bowel diseases, after activation by interleukin-1 beta (IL-1 beta).
The inventors used the Caco-2 cell line as a model of epithelial cells, and evaluated the effect of compositions according to the invention on interleukin-8 (IL-8) secretion by these cells after activation by interleukin-1 beta (IL-1 beta).
To that end, Caco-2 cells, deposited in 24well plates, were cultured for 14 days until the cells were confluent and in a stable differentiation state. On day 14, the cells were precultured in the presence of caprylic acid, transgenically-produced anti-TNF antibody (adalimumab), and a combination of the two. Twenty-four hours later, the cells were stimulated with 1 ng/ml IL-1 beta for 12 hours. IL-8 levels present in the culture supernatants were measured by ELISA.

adalimumab [anti-TNF antibody] was tested, and the “IL-8 levels present in the culture supernatants (IL-8 secretion)” value was “induces a decrease in IL-8 levels”.
